Source: patent US11155517B2, “4-substituted phenylamine derivatives and their use to protect crops by fighting undesired phytopathogenic micoorganisms” (PI INDUSTRIES LTD., priority 2016, dated 2021)

Tests used:
Assay type in all cases: cell-based
Colletotrichum capsici = Colletotrichum capsici (anthracnose) in vitro test, radial growth on Potato Dextrose Agar; details: Colletotrichum truncatum, 168 h; 300 ppm; seven days, 25° C.; read-out: % control compared to the untreated check (radial growth)
Pyricularia oryzae = test: microbe, parasite or virus in culture; details: 168 h, read-out: % control compared to the untreated check (radial growth)
Septoria lycopersici = Septoria lycopersici (leaf spot of tomato) in vitro test, radial growth on Potato Dextrose Agar; details: 168 h, seven days, 25° C., read-out: % control compared to the untreated check (radial growth)
Botrytis cinerea = Botrytis cinerea (gray mold) in vitro test, radial growth on Potato Dextrose Agar; details: 168 h, 300 ppm, seven days, 22° C., read-out: % (control) compared to the untreated check (radial growth)
Alternaria solani = Alternaria solani (early blight of tomato/potato) in vitro test, radial growth on Potato Dextrose Agar; details: 168 h, 300 ppm, seven days, 25° C., read-out: % control compared to the untreated check (radial growth)
Fusarium culmorum = Fusarium culmorum (foot rot of cereals) in vitro test, radial growth on Potato Dextrose Agar; details: Fusarium culmorum, 168 h, read-out: % control compared to the untreated check (radial growth)
Rhizoctonia solani = Rhizoctonia solani (rice sheath blight/potato black scurf) in vitro test, radial growth on Potato Dextrose Agar; details: 168 h, 300 ppm, seven days, 25° C., read-out: % control compared to the untreated check (radial growth)

Row | SMILES | inhibition of growth at 300 ppm (Colletotrichum capsici) | inhibition of growth at 300 ppm (Pyricularia oryzae) | inhibition of growth at 300 ppm (Septoria lycopersici) | inhibition of growth at 300 ppm (Botrytis cinerea) | inhibition of growth at 300 ppm (Alternaria solani) | inhibition of growth at 300 ppm (Fusarium culmorum) | inhibition of growth at 300 ppm (Rhizoctonia solani)
1 | CCN(C)C=Nc1cc(C)c(Cc2cccc(C)c2)cc1C1CC1 [Compound 198, N′-(2-cyclopropyl-5-methyl-4-(3-methylbenzyl)phenyl)-N-ethyl-N-methylformimidamide] | > 80% | > 75% | > 70% | > 80% | > 75% | 75% | > 80%
2 | CCN(C)C=Nc1cc(C)c(Cc2cccc(C#N)c2)cc1Cl [Compound 72, N′-(2-chloro-4-(3-cyanobenzyl)-5-methylphenyl)-N-ethyl-N-methylformimidamide] | > 80% | > 75% | > 70% | – | > 75% | 75% | > 80%
3 | CCN(C)C=Nc1cc(C)c(Cc2ccc(C)c(F)c2)cc1C [Compound 144, N-ethyl-N′-(4-(3-fluoro-4-methylbenzyl)-2,5-dimethylphenyl)-N-methylformimidamide] | > 80% | > 75% | > 70% | > 80% | > 75% | 75% | > 80%
4 | CCN(C)C=Nc1cc(C)c(Cc2cccc(OC(F)(F)F)c2)cc1F [Compound 206, N-ethyl-N′-(2-fluoro-5-methyl-4-(3-(trifluoromethoxy)benzyl)phenyl)-N-methylformimidamide] | > 80% | > 75% | > 70% | > 80% | > 75% | 75% | > 80%
5 | CCN(C)C=Nc1cc(C)c(Cc2cccc(OC(F)(F)F)c2)cc1C1CC1 [Compound 224, N′-(2-cyclopropyl-5-methyl-4-(3-(trifluoromethoxy)benzyl)phenyl)-N-ethyl-N-methylformimidamide] | – | > 75% | > 70% | > 80% | > 75% | 75% | > 80%
6 | CCN(C)C=Nc1cc(C)c(Cc2cccc(OC)c2)cc1Cl [Compound 70, N′-(2-chloro-4-(3-methoxybenzyl)-5-methylphenyl)-N-ethyl-N-methylformimidamide] | > 80% | > 75% | > 70% | > 80% | > 75% | 75% | > 80%
7 | CCN(C)C=Nc1cc(C#N)c(Cc2ccc(C)cc2)cc1C [Compound 252, N′-(5-cyano-2-methyl-4-(4-methylbenzyl)phenyl)-N-ethyl-N-methylformimidamide] | – | > 75% | > 70% | > 80% | > 75% | 75% | > 80%
8 | CCN(C)C=Nc1cc(C)c(/C(=N\C)c2ccccc2C)cc1C [Compound 215, N′-(2,5-dimethyl-4-((Z)-(methylimino)(o-tolyl)methyl)phenyl)-N-ethyl-N-methylformimidamide] | > 80% | > 75% | > 70% | – | > 75% | 75% | > 80%
9 | CCN(C)C=Nc1cc(Cl)c(Cc2cccc(C)c2)cc1C [Compound 260, N′-(5-chloro-2-methyl-4-(3-methylbenzyl)phenyl)-N-ethyl-N-methylformimidamide] | > 80% | > 75% | > 70% | > 80% | > 75% | 75% | –
10 | CCN(C)C=Nc1cc(C)c(Cc2cccc(N(C)C)c2)cc1C [Compound 111, N′-(4-(3-(dimethylamino)benzyl)-2,5-dimethylphenyl)-N-ethyl-N-methylformimidamide] | > 80% | > 75% | > 70% | – | > 75% | 75% | > 80%
11 | CCN(C)C=Nc1cc(C)c(Cc2cc(F)cc(OC)c2)cc1C [Compound 156, N-ethyl-N′-(4-(3-fluoro-5-methoxybenzyl)-2,5-dimethylphenyl)-N-methylformimidamide] | > 80% | > 75% | – | > 80% | > 75% | 75% | > 80%
12 | CCN(C)C=Nc1cc(Cl)c(C(C)(C(=O)N(C)C)c2cccc(F)c2)cc1C (stereo not drawn) [Compound 239, 2-(2-chloro-4-(((ethyl(methyl)amino)methylene)amino)-5-methylphenyl)-2-(3-fluorophenyl)-N,N-dimethylpropanamide] | > 80% | > 75% | – | > 80% | > 75% | 75% | > 80%
13 | Cc1cc(N=CN2CCOCC2)c(C)cc1Cc1ccc(F)cc1 [Compound 56, N-(4-(4-fluorobenzyl)-2,5-dimethylphenyl)-1-morpholinomethanimine] | – | > 75% | > 70% | > 80% | > 75% | 75% | > 80%
14 | CCN(C)C=Nc1cc(C)c(Cc2cc(C(F)(F)F)ccc2C)cc1C [Compound 53, N′-(2,5-dimethyl-4-(2-methyl-5-(trifluoromethyl)benzyl)phenyl)-N-ethyl-N-methylformimidamide] | > 80% | – | > 70% | > 80% | > 75% | 75% | –
15 | CCN(C)C=Nc1cc(C)c(Cc2ccc(C(F)(F)F)c(F)c2)cc1Cl [Compound 137, N′-(2-chloro-4-(3-fluoro-4-(trifluoromethyl)benzyl)-5-methylphenyl)-N-ethyl-N-methylformimidamide] | > 80% | > 75% | – | > 80% | > 75% | 75% | > 80%
16 | CCN(C)C=Nc1cc(C)c(Cc2ccc(F)cc2Cl)cc1Cl [Compound 99, N′-(2-chloro-4-(2-chloro-4-fluorobenzyl)-5-methylphenyl)-N-ethyl-N-methylformimidamide] | > 80% | > 75% | – | > 80% | > 75% | 75% | > 80%
17 | CCN(C)C=Nc1cc(C)c(Cc2c(Cl)cccc2Cl)cc1C [Compound 153, N′-(4-(2,6-dichlorobenzyl)-2,5-dimethylphenyl)-N-ethyl-N-methylformimidamide] | > 80% | > 75% | – | > 80% | > 75% | 75% | > 80%
18 | CCN(C)C=Nc1ccc(Cc2ccccc2C)c2ccccc12 [Compound 271, N-ethyl-N-methyl-N′-(4-(2-methylbenzyl)naphthalen-1-yl)formimidamide] | – | > 75% | > 70% | > 80% | > 75% | 75% | > 80%
19 | CCN(C)C=Nc1cc(C)c(Cc2cccc(Cl)c2)cc1Cl [Compound 78, N′-(2-chloro-4-(3-chlorobenzyl)-5-methylphenyl)-N-ethyl-N-methylformimidamide] | > 80% | > 75% | – | > 80% | > 75% | 75% | > 80%
20 | CCN(C)C=Nc1cc(C)c(Cc2ccc(F)c(C)c2)cc1Cl [Compound 119, N′-(2-chloro-4-(4-fluoro-3-methylbenzyl)-5-methylphenyl)-N-ethyl-N-methylformimidamide] | > 80% | > 75% | – | > 80% | > 75% | 75% | > 80%
21 | Cc1cc(N=CN2CCOCC2)c(C)cc1Cc1ccccc1F [Compound 55, N-(4-(2-fluorobenzyl)-2,5-dimethylphenyl)-1-morpholinomethanimine] | – | > 75% | > 70% | > 80% | > 75% | 75% | > 80%
22 | CCN(C)C=Nc1cc(C#N)c(Cc2cccc(F)c2)cc1C [Compound 250, N′-(5-cyano-4-(3-fluorobenzyl)-2-methylphenyl)-N-ethyl-N-methylformimidamide] | – | > 75% | > 70% | > 80% | > 75% | 75% | > 80%
